From article PMC9101642 (Molecules, 2022)
Marks after values point to notes of the source that are not given here.

Experiments:
MCF-7 cell lines = assay: MTT antiproliferative assay; type: cell-based, human; details: for IC50: Homo sapiens, MCF7, growth inhibition, 48 h, read-out: MCF-7 (IC50 nM); for SI: selectivity index [IC50(MDA-MB-231)]/[IC50(MCF-7)]
ERα [1] = biological target: T1, ERα (Homo sapiens, UniProt P03372); assay: Fluorescence polarization competition assay: antagonistic potency and relative binding affinity; details: for logRBA ERα: log of % relative binding affinity, estradiol = 100%
T1 sequence (P03372 1-595): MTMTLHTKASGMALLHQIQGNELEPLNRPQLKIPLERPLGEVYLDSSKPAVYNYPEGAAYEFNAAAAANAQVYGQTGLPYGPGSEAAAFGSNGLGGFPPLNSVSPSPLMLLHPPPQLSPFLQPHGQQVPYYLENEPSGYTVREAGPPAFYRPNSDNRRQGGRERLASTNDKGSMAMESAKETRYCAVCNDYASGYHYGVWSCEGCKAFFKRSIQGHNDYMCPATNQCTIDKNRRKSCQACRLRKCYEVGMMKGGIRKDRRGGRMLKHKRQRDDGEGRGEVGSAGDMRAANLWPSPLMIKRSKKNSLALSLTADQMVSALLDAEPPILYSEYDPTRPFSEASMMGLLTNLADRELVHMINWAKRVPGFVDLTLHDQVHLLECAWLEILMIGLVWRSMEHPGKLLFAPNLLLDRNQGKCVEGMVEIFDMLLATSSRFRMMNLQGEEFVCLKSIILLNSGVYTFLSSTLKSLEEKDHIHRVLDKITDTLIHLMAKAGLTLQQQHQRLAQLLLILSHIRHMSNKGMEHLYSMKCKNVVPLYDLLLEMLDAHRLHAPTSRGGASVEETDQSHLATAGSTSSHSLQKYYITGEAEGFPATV

[2] = tested on: progesterone receptor (PR); assay: ERα functional antagonism cell assay (PR as biomarker) in MCF-7; type: cell-based; details: Homo sapiens, MCF7; progesterone receptor as biomarker for ERα antagonism in MCF-7
ERβ = ERβ (Homo sapiens, UniProt Q92731); assay: Fluorescence polarization competition assay: antagonistic potency and relative binding affinity; details: for logRBA ERβ: log of % relative binding affinity, estradiol = 100%
Chain of ERβ (Q92731 whole entry): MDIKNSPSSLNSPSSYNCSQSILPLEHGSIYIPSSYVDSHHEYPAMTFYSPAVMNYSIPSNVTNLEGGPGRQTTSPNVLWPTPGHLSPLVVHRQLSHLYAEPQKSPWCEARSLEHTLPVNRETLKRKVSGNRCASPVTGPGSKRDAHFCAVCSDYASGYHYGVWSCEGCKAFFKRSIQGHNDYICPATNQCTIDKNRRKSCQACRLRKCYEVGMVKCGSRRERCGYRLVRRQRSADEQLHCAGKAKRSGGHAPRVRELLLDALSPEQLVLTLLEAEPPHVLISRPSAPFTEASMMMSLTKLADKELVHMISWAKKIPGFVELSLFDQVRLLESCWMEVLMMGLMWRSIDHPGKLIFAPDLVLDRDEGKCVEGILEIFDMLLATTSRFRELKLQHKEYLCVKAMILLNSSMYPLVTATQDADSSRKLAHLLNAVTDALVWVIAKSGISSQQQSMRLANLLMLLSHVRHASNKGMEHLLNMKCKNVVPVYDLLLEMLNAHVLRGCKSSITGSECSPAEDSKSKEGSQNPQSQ

MDA-MB-231 cell lines = assay: MTT antiproliferative assay; type: cell-based, human; details: Homo sapiens, MDA-MB-231; growth inhibition, 48 h; read-out: MDA-MB-231 (IC50 nM)
MCF-7 cells = assay: Cell cycle distribution by flow cytometry; type: cell-based, human; details: 24 h
[3] = MTT antiproliferative assay (neutral control); details: human
ERα [4] = biological target: T1, ERα; assay: ERα down-regulation immunofluorescence assay in MCF-7; type: cell-based
[5] = tested on: Ishikawa endometrial adenocarcinoma cells; assay: Antiproliferative assay; type: cell-based; details: Homo sapiens, growth inhibition
Text: As SERMs profile is often associated with the stimulation of endometrial cell proliferation and an increase in the incidence of endometrial cancer (EC), the herein compounds were therefore evaluated against Ishikawa endometrial adenocarcinoma cells (Table 8, Supplementary Material Figures […]). […] However, future experimental elaboration, currently beyond the authors' experimental facilities, is required to confirm compounds' promising profiles in terms of no EC induction.

[6] = 1 nM as lower concentration (3DPQ-5, 3DPQ-6, 3DPQ-8)

Structure (SMILES)	IC50 (MCF-7 cell lines) [nM]	SI (MCF-7 cell lines)	IC50 (ERα [1]) [nM]	Ki (ERα [1]) [nM]	logRBA ERα (ERα [1])	ERα potency, fold more potent than 4-OHT (ERα [1]; ratio of IC50 values) [fold]	IC50 [2] [nM]	IC50 (ERβ) [nM]	Ki (ERβ) [nM]	logRBA ERβ (ERβ)	IC50 (MDA-MB-231 cell lines) [nM]	IC50 at 48 h [3] [nM]	IC50 (ERα [4]) [nM]	IC50 [5] [nM]	Cell Cycle (%) G0/G1 (MCF-7 cells; 0.1 nM)	Cell Cycle (%) G2/M (MCF-7 cells; 0.1 nM)	Cell Cycle (%) S (MCF-7 cells; 0.1 nM)	Cell Cycle (%) G0/G1 (MCF-7 cells; 1 nM)	Cell Cycle (%) G2/M (MCF-7 cells; 1 nM)	Cell Cycle (%) S (MCF-7 cells; 1 nM)	further results
CC(=O)c1cc(C(=O)O[C@@H]2/C=C/C(=O)O[C@@H](O)CCC/C=C/[C@@H]3C[C@H](O)C[C@H]32)ccc1OCCN1Cc2cccnc2C1 [Compound 3DPQ-6, (1R,2E,6R,10E,11aS,13S,14aR)-6,13-dihydroxy-4-oxo-4,6,7,8,9,11a,12,13,14,14a-decahydro-1H-cyclopenta[f][1]oxacyclotridecin-1-yl 4-(2-(5H-pyrrolo[3,4-b]pyridin-6(7H)-yl)ethoxy)-3-acetylbenzoate]	1.14 ± 0.49	45.89 ^‡,§	0.84 ± 0.11	0.19	2.03 ^‡	1.33	> 100	86.56 ± 0.33	48.6	0.01 ^†,‡,§	52.31 ± 0.46	> 100	> 100	1.46 ± 0.43	–	–	–	–	–	–	Cell Cycle (%) G0/G1 (MCF-7 cells; [6]): 70.52 ± 1.53 *^,†,‡,§ %; Cell Cycle (%) G2/M (MCF-7 cells; [6]): 16.21 ± 3.25 *^,†,‡,§ %; Cell Cycle (%) S (MCF-7 cells; [6]): 13.27 ± 2.64 *^,†,‡,§ %; Cell Cycle (%) G0/G1 (MCF-7 cells; 10 nM (3DPQ-5, 3DPQ-6, 3DPQ-8)): 71.98 ± 2.44 *^,†,‡,§ %; Cell Cycle (%) G2/M (MCF-7 cells; 10 nM (3DPQ-5, 3DPQ-6, 3DPQ-8)): 14.05 ± 2.43 *^,†,‡,§ %; Cell Cycle (%) S (MCF-7 cells; 10 nM (3DPQ-5, 3DPQ-6, 3DPQ-8)): 13.98 ± 1.33 *^,†,‡,§ %
CC(=O)c1cc(C(=O)O[C@@H]2/C=C/C(=O)O[C@@H](O)CCC/C=C/[C@@H]3C[C@H](O)C[C@H]32)ccc1OCCN1CCCC1 [Compound 3DPQ-11, (1R,2E,6R,10E,11aS,13S,14aR)-6,13-dihydroxy-4-oxo-4,6,7,8,9,11a,12,13,14,14a-decahydro-1H-cyclopenta[f][1]oxacyclotridecin-1-yl 3-acetyl-4-(2-(pyrrolidin-1-yl)ethoxy)benzoate]	0.81 ± 0.22	82.86 ^‡,§	0.7 ± 0.33	0.16	2.10 ^‡	–	> 100	76.52 ± 0.48	43	0.07 ^†,‡,§	67.12 ± 0.54	> 100	> 100	1.37 ± 0.47	72.53 ± 0.47 *^,†,‡,§ %	14.16 ± 2.13 *^,†,‡,§ %	13.31 ± 1.66 *^,†,‡,§ %	74.99 ± 2.54 *^,†,‡,§ %	11.00 ± 3.43 *^,†,‡,§ %	14.02 ± 1.43 *^,†,‡,§ %	MCF-7 antiproliferative potency, fold higher than Ral (MCF-7 cell lines; ratio of IC50 values): 1.10 fold; ERα potency, fold higher than Ral (ERα [1]; ratio of IC50 values): 1.06 fold
CC(=O)c1cc(C(=O)O[C@@H]2/C=C/C(=O)O[C@@H](O)CCC/C=C/[C@@H]3C[C@H](O)C[C@H]32)ccc1OCCN1CCCCC1 [Compound 3DPQ-10, (1R,2E,6R,10E,11aS,13S,14aR)-6,13-dihydroxy-4-oxo-4,6,7,8,9,11a,12,13,14,14a-decahydro-1H-cyclopenta[f][1]oxacyclotridecin-1-yl 3-acetyl-4-(2-(piperidin-1-yl)ethoxy)benzoate]	0.97 ± 0.34	42.27 ^‡,§	0.77 ± 0.14	0.17	2.06 ^‡	1.45	> 100	79.54 ± 0.76	44.7	0.05 ^†,‡,§	41.97 ± 0.32	> 100	> 100	1.55 ± 0.42	71.96 ± 1.43 *^,†,‡,§ %	16.08 ± 1.56 *^,†,‡,§ %	11.96 ± 2.41 *^,†,‡,§ %	74.42 ± 2.12 *^,†,‡,§ %	12.92 ± 4.32 *^,†,‡,§ %	12.67 ± 2.46 *^,†,‡,§ %	–
